Measurements from US7709475B2, “Selective inhibitors against Cdk4 and Cdk6 having aminothiazole skeleton” (Banyu Pharmaceutical Co., Ltd., priority 2004, dated 2010).

Assays:
EOL-1 = test: Inhibitory action against cell proliferation (WST-8), EOL-1; type: cell-based; settings: Homo sapiens, EOL1, 72 h, EOL-1 cells, 3 days culture, read-out: concentration for 50% inhibition of cell proliferation (IC50), EOL-1
Protocol: (§1) Clinically isolated cancer cell lines EOL-1, KU812 and JURKAT were cultured in RPMI1640 medium containing 10% fetal calf serum at 37° C. in the presence of 5% CO2 under an atmosphere of saturated steam.
(§2) The inhibitory action against cell proliferation was measured by modifying the method of Skehan et al. [J. Natl. Cancer Inst., Vo. 82, 1107-1112 (1990)] according to the method of Ishiyama et al. [Talanta, Vol. 44, 1299 (1997)]. 100 μL each of cell culture medium containing 1×10^3 live cells of EOL-1, KU812 and JURKAT, respectively, was dispensed into each well of a 96-well cell culture dish, and the cells were cultured overnight. On the next day, a dilution series of solutions in DMSO was prepared from a DMSO solution of the compound of each Example. Then, the dilution series of solutions or DMSO only as a control for no drug addition were separately added to the medium for cell culture. Finally, 100 μL each of the culture medium containing either the dilution series of solutions of the compounds or DMSO only, was added to the cells which had been cultured in a 96-well dish, and then the cells were further cultured for 3 days.
(§3) After adding 20 μL each of WST-8 (Kishida Chemical Co., Ltd.) to each well and culturing the cells for another 2 hours, the optical densities at 450 nm were measured against a reference wavelength of 650 nm, and were compared with the control group. […]

cyclin D2-Cdk4 = target: T1, cyclin D2-Cdk4 (Homo sapiens, UniProt P11802); test: Cdk4 inhibitory action: cyclin D2-Cdk4 kinase activity, 33P-ATP, RB peptide substrate; type: biochemical; settings: for K1/K4, selectivity for Cdk4 against Cdk1: IC50 of Cdk1 divided by IC50 of Cdk4; for K2/K4, selectivity for Cdk4 against Cdk2: IC50 of Cdk2 divided by IC50 of Cdk4; for K5/K4, selectivity for Cdk4 against Cdk5: IC50 of Cdk5 divided by IC50 of Cdk4; for K7/K4, selectivity for Cdk4 against Cdk7: IC50 of Cdk7 divided by IC50 of Cdk4; for K9/K4, selectivity for Cdk4 against Cdk9: IC50 of Cdk9 divided by IC50 of Cdk4
T1 construct: made in house; host or cells: insect cell Sf9 (baculovirus)
T1 sequence (P11802 whole entry): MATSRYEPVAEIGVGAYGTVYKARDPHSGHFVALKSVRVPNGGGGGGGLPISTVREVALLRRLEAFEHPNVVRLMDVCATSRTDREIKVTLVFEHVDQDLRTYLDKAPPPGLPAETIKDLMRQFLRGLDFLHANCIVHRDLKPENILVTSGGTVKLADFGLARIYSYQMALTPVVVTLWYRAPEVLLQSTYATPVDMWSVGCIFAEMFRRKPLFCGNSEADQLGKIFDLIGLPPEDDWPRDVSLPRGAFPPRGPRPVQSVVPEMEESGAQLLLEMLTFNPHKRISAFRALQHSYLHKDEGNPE
T1 sequence (P30279 whole entry partner): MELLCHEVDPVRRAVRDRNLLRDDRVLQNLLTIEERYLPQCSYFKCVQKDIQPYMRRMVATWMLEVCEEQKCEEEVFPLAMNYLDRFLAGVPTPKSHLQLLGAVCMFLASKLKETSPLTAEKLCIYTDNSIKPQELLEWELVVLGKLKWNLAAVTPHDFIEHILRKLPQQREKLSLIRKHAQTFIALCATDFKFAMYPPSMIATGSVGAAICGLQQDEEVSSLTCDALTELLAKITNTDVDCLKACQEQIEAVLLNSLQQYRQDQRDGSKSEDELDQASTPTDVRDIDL

KU812 = test: Inhibitory action against cell proliferation (WST-8), KU812; type: cell-based; settings: Homo sapiens, 72 h, KU812 cells, 3 days culture, read-out: concentration for 50% inhibition of cell proliferation (IC50), KU812
Protocol: as §1, §2, §3

cyclin B-Cdk1 = target: T2, cyclin B-Cdk1 (Homo sapiens, UniProt P06493); test: Cdk1 (Cdc2) inhibitory action: cyclin B-Cdk1 kinase activity; type: biochemical; settings: cyclin B-Cdk1, 50 μM ATP
T2 construct: made in house; host or cells: insect cell Sf9 (baculovirus)
T2 sequence (P06493 whole entry): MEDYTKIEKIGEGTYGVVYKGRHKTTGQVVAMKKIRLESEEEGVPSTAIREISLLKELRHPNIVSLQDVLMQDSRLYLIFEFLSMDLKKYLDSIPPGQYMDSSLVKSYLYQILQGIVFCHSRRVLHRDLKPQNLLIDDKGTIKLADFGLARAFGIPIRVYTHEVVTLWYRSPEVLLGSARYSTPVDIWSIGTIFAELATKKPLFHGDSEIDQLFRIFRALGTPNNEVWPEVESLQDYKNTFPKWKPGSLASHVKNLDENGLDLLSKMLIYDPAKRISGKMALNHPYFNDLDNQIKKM
T2 sequence (P14635 whole entry partner): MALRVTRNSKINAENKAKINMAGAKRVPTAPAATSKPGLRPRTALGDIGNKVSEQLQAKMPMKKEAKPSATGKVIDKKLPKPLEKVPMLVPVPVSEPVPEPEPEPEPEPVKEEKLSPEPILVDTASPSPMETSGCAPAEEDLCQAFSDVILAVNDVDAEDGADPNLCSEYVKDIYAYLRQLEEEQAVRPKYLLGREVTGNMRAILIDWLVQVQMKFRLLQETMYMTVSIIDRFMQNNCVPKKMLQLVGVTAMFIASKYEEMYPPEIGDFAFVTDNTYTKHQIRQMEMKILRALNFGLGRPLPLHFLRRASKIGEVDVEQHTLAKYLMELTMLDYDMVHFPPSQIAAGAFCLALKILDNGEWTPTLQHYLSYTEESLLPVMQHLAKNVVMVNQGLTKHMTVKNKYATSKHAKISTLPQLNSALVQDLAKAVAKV
Text: The cDNA of Cdk1, and the cDNA of a fusion protein of cyclin B, an activating factor of Cdk1, and glutathione S-transferase, were integrated into a baculovirus expression vector to prepare a recombinant baculovirus. This was co-transfected into insect cell Sf9 to express an active complex of the cyclin B/glutathione S-transferase fusion protein-Cdk1 at a high level. The cells were recovered and solubilized, then the active complex was adsorbed onto Glutathione Sepharose, and a cyclin B-Cdk1 active complex was recovered using Precision Protease and was purified by HPLC column chromatography.
For the measurement of the activity of cyclin B-Cdk1, a synthetic peptide (Ala-Lys-Ala-Lys-Lys-Thr-Pro-Lys-Lys-Ala-Lys-Lys) was used as the substrate.
(§4) The reaction was performed by partially modifying the method of Kitagawa et al. [Oncogene, Vol. 7, 1067-1074 (1992)]. The volume of the reaction solution was 21.1 μL, and to the R buffer, purified cyclin B-Cdk1, 100 μM of the substrate peptide, 50 μM of non-labeled adenosine triphosphate (ATP), and 1 μCi of [γ-33P]-labeled ATP (2000 to 4000 Ci/mmole) were added to react at 30° C. for 30 minutes. Then, 10 μL of 350 mM phosphate buffer was added to the reaction system to terminate the reaction. The substrate peptide was adsorbed onto P81 paper filter on a 96-well plate, and then washed several times with 75 mM phosphate buffer. The radioactivity of the substrate peptide was measured with a liquid scintillation counter.
(§5) Addition of the compound according to the invention to the reaction system was carried out by first preparing a dilution series of solutions of the compound in dimethylsulfoxide (DMSO), and adding 1.1 μL of the dilutions. A control was provided by adding 1.1 μL of DMSO to the reaction system.
A representative compound of the compounds according to the invention was selected, and the IC50 value of this compound for the cyclin B-Cdk1 activity was determined.

p35-Cdk5 = target: T3, p35-Cdk5 (Homo sapiens, UniProt Q00535); test: Cdk5 inhibitory action: p35-Cdk5 kinase activity; type: biochemical; settings: p35-Cdk5, 50 μM ATP
T3 construct: purchased PanVera Corp; host or cells: insect cell
T3 sequence (Q00535 whole entry): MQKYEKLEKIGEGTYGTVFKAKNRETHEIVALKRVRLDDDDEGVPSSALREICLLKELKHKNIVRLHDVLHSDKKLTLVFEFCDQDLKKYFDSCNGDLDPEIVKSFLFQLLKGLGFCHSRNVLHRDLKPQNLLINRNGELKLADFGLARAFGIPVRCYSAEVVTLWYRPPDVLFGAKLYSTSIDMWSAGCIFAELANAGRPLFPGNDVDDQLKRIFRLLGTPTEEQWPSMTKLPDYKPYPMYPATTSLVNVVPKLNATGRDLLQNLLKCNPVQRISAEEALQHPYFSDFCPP
T3 sequence (Q15078 whole entry partner): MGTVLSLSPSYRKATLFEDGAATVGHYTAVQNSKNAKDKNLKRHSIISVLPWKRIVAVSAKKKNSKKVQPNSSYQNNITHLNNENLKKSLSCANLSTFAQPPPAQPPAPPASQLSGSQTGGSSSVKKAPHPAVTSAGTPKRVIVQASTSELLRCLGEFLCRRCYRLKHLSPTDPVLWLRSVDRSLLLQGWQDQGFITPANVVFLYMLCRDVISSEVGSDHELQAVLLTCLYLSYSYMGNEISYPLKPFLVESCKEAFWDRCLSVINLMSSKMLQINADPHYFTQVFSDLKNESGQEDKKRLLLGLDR
Protocol: For the measurement of the activity of p35-Cdk5, a human-derived recombinant […] active complex, which was expressed in insect cell and purified, was purchased from PanVera Corp. A synthetic peptide (Ala-Lys-Ala-Lys-Lys-Thr-Pro-Lys-Lys-Ala-Lys-Lys) was used as the substrate.
as §4, with “cyclin p35-Cdk5, 0.01 mg/mL” for “cyclin B-Cdk1, 100 μM”, “[…])” for “4000 Ci/mmole)”, “for 10” for “for 30”
as §5
A representative compound of the compounds according to the invention was selected, and the IC50 value of this compound for the p35-Cdk5 activity was determined.

Row | SMILES | K1/K4, selectivity for Cdk4 against Cdk1 (cyclin D2-Cdk4) | K2/K4, selectivity for Cdk4 against Cdk2 (cyclin D2-Cdk4) | K5/K4, selectivity for Cdk4 against Cdk5 (cyclin D2-Cdk4) | K7/K4, selectivity for Cdk4 against Cdk7 (cyclin D2-Cdk4) | K9/K4, selectivity for Cdk4 against Cdk9 (cyclin D2-Cdk4) | IC50 (cyclin B-Cdk1) [µM] | IC50 (p35-Cdk5) [µM] | other results
1 | Cc1cc(-c2cnc(Nc3cnc(CN4CCN(C)CC4)cn3)s2)nc(OC2CCCCC2)n1 [Example 1, 5-[2-(cyclohexyloxy)-6-methyl-4-pyrimidinyl]-2-[5-(4-methyl-1-piperazinyl)methyl-2-pyrazinyl]amino-1,3-thiazole] | 65 | 185 | 326 | 58 | 272 | 0.6 |  | IC50 (EOL-1): 0.054 µM; IC50 (KU812): 0.15 µM
2 | Cc1cc(-c2cnc(Nc3cnc(CN4CCC(N(C)C)C4)cn3)s2)nc(OC2CCCCC2)n1 (stereo not shown) [Example 13, 5-[2-(cyclohexyloxy)-6-methyl-4-pyrimidinyl]-2-[5-(3-dimethylamino-1-pyrrolidinyl)methyl-2-pyrazinyl]amino-1,3-thiazole] | 103 | 142 | 433 | 62 | 72 | 0.62 | 2.6 | 
3 | Cc1cc(-c2cnc(Nc3cnc(CN4CCN(C)CC4)cn3)s2)nc(NC2CCCCC2)n1 [Example 55, 5-[2-(cyclohexylamino)-6-methyl-4-pyrimidinyl]-2-[5-(4-methyl-1-piperazinyl)methyl-2-pyrazinyl]amino-1,3-thiazole] |  |  |  |  |  | 0.75 |  | 
4 | Cc1cc(-c2cnc(Nc3cnc(CN4CCCC4)cn3)s2)nc(SC2CCCCC2)n1 [Example 93, 5-[2-(cyclohexylthio)-6-methyl-4-pyrimidinyl]-2-[5-(1-pyrrolidinyl)methyl-2-pyrazinyl]amino-1,3-thiazole] |  |  |  |  |  | 0.87 | 2.9 | 
5 | Cc1cc(-c2cnc(Nc3cnc(CN4CCC(N(C)C)C4)cn3)s2)nc(SC2CCCCC2)n1 (stereo not shown) [Example 94, 5-[2-(cyclohexylthio)-6-methyl-4-pyrimidinyl]-2-[5-(3-dimethylamino-1-pyrrolidinyl)methyl-2-pyrazinyl]amino-1,3-thiazole] |  |  |  |  |  | 0.92 |  | 
6 | Cc1cc(-c2cnc(Nc3cnc(CNC(C)C)cn3)s2)nc(SC2CCCCC2)n1 [Example 96, 5-[2-(cyclohexylthio)-6-methyl-4-pyrimidinyl]-2-[5-(isopropylamino)methyl-2-pyrazinyl]amino-1,3-thiazole] |  |  |  |  |  | 0.56 |  | 
7 | Cc1cc(-c2cnc(Nc3cnc(CNCCO)cn3)s2)nc(SC2CCCCC2)n1 [Example 99, 5-[2-(cyclohexylthio)-6-methyl-4-pyrimidinyl]-2-[5-(2-hydroxyethylamino)methyl-2-pyrazinyl]amino-1,3-thiazole] |  |  |  |  |  |  | 2.4 | 
8 | Cc1cc(-c2cnc(Nc3cnc(CN4CCN(C)CC4)cn3)s2)nc(Sc2ccccc2Cl)n1 [Example 109, 5-[2-(2-chlorophenylthio)-6-methyl-4-pyrimidinyl]-2-[5-(4-methyl-1-piperazinyl)methyl-2-pyrazinyl]amino-1,3-thiazole] |  |  |  |  |  | 0.43 |  | 
9 | CC(=O)N1CCN(Cc2ccc(Nc3ncc(-c4cc(C)nc(OC5CCCCC5)n4)s3)nc2)CC1 [Example 125, 5-[2-(cyclohexyloxy)-6-methyl-4-pyrimidinyl]-2-[5-(4-acetyl-1-piperazinyl)methyl-2-pyridyl]amino-1,3-thiazole] |  |  |  |  |  | 1.2 |  | IC50 (EOL-1): 0.0056 µM; IC50 (KU812): 0.18 µM
10 | Cc1cc(-c2cnc(Nc3ccc(CN4CCC[C@H]4CO)cn3)s2)nc(NC2CCCCC2)n1 [Example 137, (2S)-5-[2-(cyclohexylamino)-6-methyl-4-pyrimidinyl]-2-[5-(2-hydroxymethyl-1-pyrrolidinyl)methyl-2-pyridyl]amino-1,3-thiazole] | 167 | 625 | 417 | 167 | 153 | 1.2 |  | 
